According to ChEMBL document CHEMBL1201862, “PubChem BioAssay data set” (2004):
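Cultured in 96-well plates, cells were exposed to test compound for 48 hours across five concentrations. The concentration for 50% growth inhibition is given as GI50.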 Activity calls are given as the source filed them. Cut-off read from the data, not from the text of the source: active = GI50 up to about 1.1 µM and inactive = higher. Where a SMILES comes first, the peptide text is derived from it. [ ]: non-standard residue; d: D form. The star is where a group is joined. Bn2Val = CC(C)[C@@H](C(=O)*)N(Cc1ccccc1)Cc1ccccc1; NH(3,4-diMeO-benzyl) = COc1ccc(CN*)cc1OC; NMeV = CN[C@H](C(=O)O)C(C)C

Columns and labels:
Assay in all cases: NCI-60 cell line screen, 48 h
786-0 = tested on: 786-0
A498 = tested on: A498
HL-60 = tested on: HL-60
HOP-62 = tested on: HOP-62
Hs-578T = tested on: Hs-578T
LOX IMVI = tested on: LOX IMVI
MDA-MB-231 = tested on: MDA-MB-231
MDA-MB-435 = tested on: MDA-MB-435
Malme-3M = tested on: Malme-3M
OVCAR-3 = tested on: OVCAR-3
PC-3 = tested on: PC-3
RPMI-8226 = tested on: RPMI-8226
RXF 393 = tested on: RXF 393
SF-268 = tested on: SF-268
SN12C = tested on: SN12C
SNB-75 = tested on: SNB-75
TK-10 = tested on: TK-10
UACC-62 = tested on: UACC-62
HCT-15 = tested on: HCT-15
SK-MEL-28 = tested on: SK-MEL-28

Measured: GI50

CCCCCCN1C(=O)CC(=O)N(CCCCCC)S1(=O)=O
inactive: 786-0 18.5 µM | A498 14.7 µM | HL-60 24.8 µM | HOP-62 18.9 µM | Hs-578T 22 µM | LOX IMVI 13.6 µM | MDA-MB-231 17.1 µM | MDA-MB-435 22.3 µM | Malme-3M 23.5 µM | OVCAR-3 21.4 µM | PC-3 23 µM | RPMI-8226 24.7 µM | RXF 393 16.4 µM | SF-268 17.7 µM | SN12C 17.7 µM | SNB-75 17.9 µM | TK-10 19.1 µM | UACC-62 17.3 µM

COc1cc(S(=O)(=O)Nc2ccc(-c3csc(N)n3)cc2)ccc1Cl
20.1 µM: HCT-15
inactive: 786-0 16.4 µM | A498 18.2 µM | HL-60 15 µM | Hs-578T 53.7 µM | LOX IMVI 18.7 µM | MDA-MB-231 16.9 µM | MDA-MB-435 20.8 µM | Malme-3M 16.6 µM | OVCAR-3 14.9 µM | PC-3 15.3 µM | RPMI-8226 19.5 µM | RXF 393 12.2 µM | SF-268 34.4 µM | SK-MEL-28 21.3 µM | SN12C 18.3 µM | SNB-75 21.4 µM | UACC-62 15.2 µM

O=C1OCC2(CO1)CC1C=CC2C1 (stereo not drawn)
> 100 µM: HCT-15
inactive: 786-0 > 100 µM | A498 > 100 µM | HL-60 > 100 µM | HOP-62 > 100 µM | Hs-578T > 100 µM | LOX IMVI > 100 µM | MDA-MB-231 > 100 µM | MDA-MB-435 > 100 µM | Malme-3M > 100 µM | OVCAR-3 > 100 µM | PC-3 > 100 µM | RPMI-8226 > 100 µM | RXF 393 > 100 µM | SF-268 > 100 µM | SK-MEL-28 > 100 µM | SN12C > 100 µM | TK-10 > 100 µM | UACC-62 > 100 µM

Cc1ccc(Nc2nc3c(=O)n(C)c(=O)n(C)c3nc2Nc2ccc(C)cc2)cc1
3.32 µM: HCT-15
inactive: 786-0 6.04 µM | A498 16.5 µM | HL-60 9.66 µM | HOP-62 18.9 µM | Hs-578T 25.8 µM | LOX IMVI 10.1 µM | MDA-MB-231 13.7 µM | MDA-MB-435 12.1 µM | Malme-3M 14.9 µM | PC-3 14.7 µM | RPMI-8226 7.62 µM | RXF 393 10.3 µM | SF-268 16 µM | SK-MEL-28 16.7 µM | SN12C 15.5 µM | SNB-75 15.4 µM | TK-10 16.4 µM | UACC-62 12.3 µM

COC(=O)C1Cc2cc3c(cc2C1=O)CCCC3 (stereo not drawn)
inactive: 786-0 66.5 µM | A498 53.5 µM | HL-60 29.2 µM | HOP-62 48.6 µM | Hs-578T 48.4 µM | LOX IMVI 67 µM | MDA-MB-231 63.7 µM | MDA-MB-435 > 100 µM | Malme-3M > 100 µM | OVCAR-3 > 100 µM | PC-3 30.8 µM | RPMI-8226 45.9 µM | SF-268 62.1 µM | SK-MEL-28 > 100 µM | SN12C 77.4 µM | SNB-75 70.3 µM | TK-10 28 µM | UACC-62 > 100 µM
43.2 µM: HCT-15

N#Cc1ccc(-c2nc3c(N)ncnc3o2)cc1
inactive: 786-0 63.8 µM | A498 > 100 µM | HL-60 > 100 µM | HOP-62 84.7 µM | Hs-578T > 100 µM | LOX IMVI > 100 µM | MDA-MB-231 > 100 µM | MDA-MB-435 > 100 µM | OVCAR-3 > 100 µM | PC-3 > 100 µM | RPMI-8226 > 100 µM | RXF 393 > 100 µM | SF-268 > 100 µM | SK-MEL-28 > 100 µM | SN12C > 100 µM | TK-10 > 100 µM | UACC-62 > 100 µM
> 100 µM: HCT-15

CCn1c(=O)c2c(=O)[nH][nH]c2c2ccccc21
inactive: 786-0 > 100 µM | A498 > 100 µM | HL-60 > 100 µM | HOP-62 > 100 µM | Hs-578T > 100 µM | LOX IMVI > 100 µM | MDA-MB-231 > 100 µM | MDA-MB-435 > 100 µM | Malme-3M > 100 µM | OVCAR-3 > 100 µM | PC-3 > 100 µM | RPMI-8226 > 100 µM | SK-MEL-28 > 100 µM | SN12C > 100 µM | SNB-75 > 100 µM | TK-10 > 100 µM
> 100 µM: HCT-15

Cc1cc(C)c(S(=O)(=O)N(CCCN)OCCON(CCCN)S(=O)(=O)c2c(C)cc(C)cc2C)c(C)c1
inactive: 786-0 3.93 µM | A498 19.5 µM | HOP-62 3.01 µM | Hs-578T 2.67 µM | LOX IMVI 2.44 µM | MDA-MB-231 2.89 µM | MDA-MB-435 3.89 µM | Malme-3M 1.93 µM | OVCAR-3 1.79 µM | PC-3 1.73 µM | RPMI-8226 2.05 µM | RXF 393 4.67 µM | SF-268 2.18 µM | SK-MEL-28 5.26 µM | SN12C 7.87 µM | SNB-75 3.42 µM | TK-10 8 µM | UACC-62 4.19 µM
25.7 µM: HCT-15

CC(=O)Nc1oc(C)nc1C#N
> 100 µM: HCT-15
inactive: 786-0 > 100 µM | A498 > 100 µM | HL-60 > 100 µM | HOP-62 > 100 µM | Hs-578T > 100 µM | LOX IMVI > 100 µM | MDA-MB-231 > 100 µM | MDA-MB-435 > 100 µM | PC-3 > 100 µM | RPMI-8226 > 100 µM | RXF 393 > 100 µM | SF-268 > 100 µM | SK-MEL-28 > 100 µM | SN12C > 100 µM | TK-10 > 100 µM | UACC-62 > 100 µM

CN1c2ccccc2S(=O)(=O)n2c(COc3ccc(Cl)cc3)nnc21
inactive: 786-0 41.5 µM | A498 30.5 µM | HL-60 91 µM | HOP-62 21.7 µM | Hs-578T 43.4 µM | LOX IMVI > 100 µM | MDA-MB-231 44.8 µM | MDA-MB-435 > 100 µM | OVCAR-3 > 100 µM | PC-3 > 100 µM | RXF 393 55.1 µM | SF-268 55 µM | SK-MEL-28 > 100 µM | SN12C > 100 µM | TK-10 > 100 µM | UACC-62 56.2 µM
> 100 µM: HCT-15

CC1CNc2ccccc2N=C1NN (stereo not drawn)
inactive: 786-0 > 100 µM | A498 > 100 µM | HOP-62 > 100 µM | Hs-578T > 100 µM | LOX IMVI > 69.8 µM | MDA-MB-231 > 100 µM | MDA-MB-435 > 100 µM | Malme-3M > 100 µM | OVCAR-3 > 100 µM | PC-3 > 100 µM | RPMI-8226 > 36.5 µM | RXF 393 > 100 µM | SF-268 > 100 µM | SK-MEL-28 > 100 µM | SN12C > 100 µM | TK-10 > 100 µM | UACC-62 > 100 µM
> 100 µM: HCT-15

COc1ccc(C2C3COc4ccccc4C3=NN2c2ccccc2)cc1 (stereo not drawn)
inactive: 786-0 > 100 µM | A498 > 100 µM | HOP-62 > 100 µM | Hs-578T > 100 µM | LOX IMVI > 100 µM | MDA-MB-231 > 100 µM | MDA-MB-435 62.4 µM | Malme-3M > 100 µM | OVCAR-3 > 100 µM | PC-3 57.7 µM | RPMI-8226 > 100 µM | RXF 393 > 100 µM | SF-268 > 100 µM | SNB-75 > 100 µM | TK-10 > 100 µM | UACC-62 > 100 µM
> 100 µM: HCT-15

O=C(O)C(Br)C(Br)c1ccccc1[N+](=O)[O-] (stereo not drawn)
inactive: 786-0 > 100 µM | A498 > 100 µM | HOP-62 96.2 µM | Hs-578T > 100 µM | LOX IMVI > 100 µM | MDA-MB-231 > 100 µM | MDA-MB-435 > 100 µM | Malme-3M > 100 µM | OVCAR-3 46.9 µM | PC-3 > 100 µM | RPMI-8226 > 100 µM | RXF 393 > 100 µM | SF-268 > 100 µM | SK-MEL-28 > 100 µM | SN12C > 100 µM | SNB-75 > 100 µM | TK-10 > 100 µM | UACC-62 > 100 µM
> 100 µM: HCT-15

C[C@@]1(O)C2C3CC4C5C3C1[C@](O)(C42)[C@H]5Br (stereo partly drawn)
> 100 µM: HCT-15
inactive: 786-0 > 100 µM | A498 > 100 µM | HL-60 > 100 µM | HOP-62 > 100 µM | Hs-578T > 100 µM | LOX IMVI > 100 µM | MDA-MB-231 > 100 µM | MDA-MB-435 > 100 µM | OVCAR-3 > 100 µM | PC-3 > 100 µM | RXF 393 > 100 µM | SF-268 > 100 µM | SK-MEL-28 > 100 µM | SN12C > 100 µM | TK-10 > 100 µM | UACC-62 > 100 µM

C/C(CC(O)(C(F)(F)Cl)C(F)(F)Cl)=N\Nc1ccccc1
32.1 µM: HCT-15
inactive: 786-0 41.1 µM | A498 40 µM | HL-60 22.5 µM | Hs-578T 27.2 µM | LOX IMVI 27.5 µM | MDA-MB-231 47.6 µM | MDA-MB-435 31.9 µM | Malme-3M 32.4 µM | OVCAR-3 19.1 µM | PC-3 22.2 µM | RPMI-8226 30.2 µM | RXF 393 19.2 µM | SK-MEL-28 47.2 µM | SNB-75 28.9 µM | TK-10 38.4 µM | UACC-62 43.3 µM

COc1ccc(CNC(=O)[C@@H]2CCCN2C(=O)[C@@H]2CCCN2C(=O)[C@H](C(C)C)N(C)C(=O)[C@@H](NC(=O)[C@H](C(C)C)N(Cc2ccccc2)Cc2ccccc2)C(C)C)cc1OC (Bn2Val-V[NMeV]PP-{NH(3,4-diMeO-benzyl)})
12.1 µM: HCT-15
inactive: 786-0 10.4 µM | A498 17.8 µM | HL-60 3.15 µM | HOP-62 15.6 µM | Hs-578T 51.3 µM | LOX IMVI 4.26 µM | MDA-MB-231 17.5 µM | MDA-MB-435 12 µM | Malme-3M 25.2 µM | OVCAR-3 12 µM | PC-3 6.15 µM | RXF 393 11.1 µM | SF-268 21.3 µM | SK-MEL-28 16.9 µM | SN12C 15 µM | SNB-75 10.3 µM | TK-10 14 µM | UACC-62 14.5 µM
